Results: US8153359B2, “Toxicity assay based on human blastocyst-derived stem cells and progenitor cells” (Cellartis AB, priority 2006, dated 2012)

Columns and labels:
hBS cells [1] = assay: Cytotoxicity test, viability by Resazurin reduction, hBS cells; type: cell-based, human; settings: hBS cells set to 1
hBS MPs [2] = assay: Cytotoxicity test, viability by Resazurin reduction, hBS MPs (progenitor cells); type: cell-based, human; settings: relative to hBS cells = 1
hBS MPs [3] = assay: Cytotoxicity test, viability by ATP content, hBS MPs (progenitor cells); type: cell-based, human; settings: relative to hBS cells = 1
[4] = tested on: human foreskin fibroblasts (hFFs); assay: Cytotoxicity test, viability by Resazurin reduction, hFFs; type: cell-based; settings: relative to hBS cells = 1
hBS cells [5] = assay: Cytotoxicity test, viability by ATP content (CellTiterGlo), hBS cells; type: cell-based, human; settings: hBS cells set to 1
[6] = tested on: human foreskin fibroblasts (hFFs); assay: Cytotoxicity test, viability by ATP content, hFFs; type: cell-based; settings: relative to hBS cells = 1
[7] = tested on: hBS cells, hBS MPs and hFFs; assay: Cytotoxicity test, comparison over all cell types (hBS cells, progenitor cells, hFF); settings: FIG. 3

Row | Structure (SMILES) | Ratio between the IC50 values measured using the Rezasurin assay, hBS cells (hBS cells [1]) | Ratio between the IC50 values measured using the Rezasurin assay, Progenitors (hBS MPs [2]) | Ratio between the IC50 values measured using the ATP assay, Progenitors (hBS MPs [3]) | Ratio between the IC50 values measured using the Rezasurin assay, hFF [4] | Ratio between the IC50 values measured using the ATP assay, hBS cells (hBS cells [5]) | Ratio between the IC50 values measured using the ATP assay, hFF [6] | toxic reaction [7]
1 | O=c1[nH]cc(F)c(=O)[nH]1 [5-FU, 5-Fluorouracil] | 1 | 1 | 2 | 2.5 | 1 | 7 | –
2 | CC1=C(/C=C/C(C)=C/C=C/C(C)=C\C(=O)O)C(C)(C)CCC1 [13CRA, 13-cis retinoic acid] | 1 | 0.000001 | 0.000025 | >7 | 1 | >6 | –
3 | O=C1NS(=O)(=O)c2ccccc21.[Na] [Saccharin, Sodium Saccharin] | – | – | – | – | – | – | no toxic reaction
4 | CC1=C(/C=C/C(C)=C/C=C/C(C)=C/C(=O)O)C(C)(C)CCC1 [ATRA, all-trans retinoic acid] | 1 | 0.0005 | 0.0001 | >6 | 1 | >4 | –
